Source: US20220128542A1, “TREATMENT EFFICIENCY EVALUATION” (TX MEDIC AB, priority 2019, published 2022)

System: brain of rats subjected to closed-head diffuse severe TBI (sTBI)
Assay: HPLC of energy metabolites, antioxidants and oxidative/nitrosative stress biomarkers in brain, dose study after sTBI (Example 3)
Type: in vivo, rat
Settings: for NAD^+/NADH ratio in brain homogenate: calculated, adimensional, rats 7 days post-sTBI
Description: Male Wistar rats (n=160) of 300-350 g body weight were used in this study.
1994, 80: 291-300. This model causes diffuse axonal injury and it is able to reproduce the physical and mechanical characteristics of the diffuse TBI in humans.
Rats were placed prone on a bed of specific polyurethane foam inserted in a special container. This foam dissipates the major part of the potential energy (deriving from the mechanical forces) and prevents any rebound of the animal after the impact that could produce spinal damages.
These time points are coincident with the worst biochemical derangement (2 days) or, in the case of a mildly injured brain, with a full metabolic recovery (7 days).
The drug treatment consisted in a subcutaneous injection of 0.5 ml of LMW-DS (Tikomed) and administered at 3 different concentrations (1, 5 and 15 mg/kg body weight), according to the schematic protocol described below.
Sham-operated animals underwent the same procedure of anesthesia but TBI and were used as the control group.
Rats used in this study were divided into 4 groups in order to carry out a study on the efficacy of three different concentrations of LMW-DS at two different times post TBI. As subsequently specified, in each group there were animals subjected to a specific treatment for metabolic analyses and other animals intended to histo-morphological studies, according to the procedures described below.
Rats subjected to sTBI and receiving a single administration of LMW-DS after 30 minutes post-TBI, with sacrifice at 2 days post-TBI. Animals were divided in the following subgroups:
Rats subjected to sTBI and receiving a single administration of LMW-DS after 30 minutes post-TBI, with sacrifice at 7 days post-TBI. Animals were divided in the following subgroups:
Rats (n=12) subjected to sTBI and receiving repeated administrations of the maximal dose of LMW-DS (15 mg/kg b.w.) after 30 minutes, 3 days and 5 days post-TBI, with sacrifice at 7 days post-TBI. Four additional rats were used for the histo-morphological studies. Total rats in this group: n=16
To minimize metabolite loss, an in vivo craniectomy was performed in all animals during anesthesia. The rat skull was carefully removed, the brain was exposed, sharply cut along the sagittal fissure and the two hemispheres were separated. The hemispheres dedicated to biochemical analyses were freeze-clamped by aluminum tongues pre-cooled in liquid nitrogen and then immersed in liquid nitrogen. The freeze-clamping procedure was introduced to accelerate freezing of the tissue, thus minimizing potential metabolite loss.
Tissue homogenization for metabolite analyses was effected as described below. After the wet weight (w.w.) determination, the frozen hemispheres were placed into 7 ml of ice-cold, nitrogen-saturated, precipitating solution (1:10 w/v) composed by CH3CN+10 mM KH2PO4, pH 7.40, (3:1; v:v), and the homogenization was performed using an Ultra-Turrax homogenizer set at 24,000 rpm/min (Janke & Kunkel, Staufen, Germany). After centrifugation at 20,690×g, for 10 min at 4° C., the clear supernatants were saved, pellets were supplemented with an aliquot of 10 mM KH2PO4 and homogenized again as described above and saved overnight at −20° C. in order to obtain a complete recovery of aqueous phase from tissue. A second centrifugation was performed (20,690×g, for 10 min at 4° C.) and supernatants combined with those previously obtained were extracted by vigorous agitation with a double volume of HPLC-grade CHCl3 and centrifuged as above.

[1] = 1 mg/kg b.w. single, 30 min after trauma, 2 days post-TBI
[2] = 1 mg/kg b.w. single, 30 min after trauma, 2 days post-sTBI
[3] = 5 mg/kg b.w. single, 30 min after trauma, 2 days post-TBI
[4] = 5 mg/kg b.w. single, 30 min after trauma, 2 days post-sTBI
[5] = 15 mg/kg b.w. single, 30 min after trauma, 2 days post-sTBI
[6] = rats 2 days post-TBI, single 1 mg/kg b.w. 30 min after trauma
[7] = rats 2 days post-TBI, single 5 mg/kg b.w. 30 min after trauma
[8] = rats 2 days post-TBI, single 15 mg/kg b.w. 30 min after trauma

sodium salt of dextran sulfate [LMW-DS]
NO2 brain concentration [1]: 158.36 ± 19.08 nmol/g w.w.
acetyl-CoA brain concentration [1]: 27.74 ± 3.23 nmol/g w.w.
ascorbic acid brain concentration [1]: 2567.35 ± 147.76 nmol/g w.w.
AMP brain concentration [2]: 62.04 ± 7.46 nmol/g w.w.
CMP brain concentration [2]: 29.39 ± 6.00 nmol/g w.w.
CTP brain concentration [2]: 33.01 ± 7.63 nmol/g w.w.
GDP glucose brain concentration [2]: 65.66 ± 41.61 nmol/g w.w.
GMP brain concentration [2]: 205.06 ± 25.74 nmol/g w.w.
IMP brain concentration [2]: 45.97 ± 8.65 nmol/g w.w.
NAD^+/NADH ratio (adimensional) [2]: 33.91 ± 9.32
UDP-Gal brain concentration [2]: 118.50 ± 9.89 nmol/g w.w.
UDP-GalNac brain concentration [2]: 21.24 ± 3.13 nmol/g w.w.
UDP-Glc brain concentration [2]: 45.14 ± 6.68 nmol/g w.w.
UDP-GlcNac brain concentration [2]: 96.62 ± 8.80 nmol/g w.w.
UMP brain concentration [2]: 148.04 ± 20.45 nmol/g w.w.
UTP brain concentration [2]: 104.07 ± 16.34 nmol/g w.w.
GSH brain concentration [3]: 2067.79 ± 301.54 nmol/g w.w.
NO2 brain concentration [3]: 218.12 ± 26.28 nmol/g w.w.
NO3 brain concentration [3]: 148.41 ± 32.30 nmol/g w.w.
acetyl-CoA brain concentration [3]: 34.85 ± 4.05 nmol/g w.w.
ascorbic acid brain concentration [3]: 2626.68 ± 151.17 nmol/g w.w.
AMP brain concentration [4]: 67.03 ± 11.85 nmol/g w.w.
CTP brain concentration [4]: 37.72 ± 7.63 nmol/g w.w.
GDP brain concentration [4]: 183.27 ± 25.32 nmol/g w.w.
GDP glucose brain concentration [4]: 83.81 ± 37.35 nmol/g w.w.
NAD^+ brain concentration [4]: 376.85 ± 64.15 nmol/g w.w.
NAD^+/NADH ratio (adimensional) [4]: 36.61 ± 6.09
UDP-GalNac brain concentration [4]: 20.75 ± 3.06 nmol/g w.w.
UTP brain concentration [4]: 142.82 ± 22.43 nmol/g w.w.
GSH brain concentration (15 mg/kg b.w. single, 30 min after trauma, 2 days post-TBI): 2418.94 ± 352.75 nmol/g w.w.
ADP-ribose brain concentration [5]: 23.06 ± 4.63 nmol/g w.w.
AMP brain concentration [5]: 66.26 ± 10.74 nmol/g w.w.
CTP brain concentration [5]: 37.53 ± 7.59 nmol/g w.w.
GDP brain concentration [5]: 194.61 ± 26.88 nmol/g w.w.
GDP glucose brain concentration [5]: 84.24 ± 37.54 nmol/g w.w.
GMP brain concentration [5]: 178.88 ± 22.46 nmol/g w.w.
NADPH brain concentration [5]: 8.93 ± 0.74 nmol/g w.w.
NADP^+ brain concentration [5]: 17.75 ± 4.06 nmol/g w.w.
NAD^+ brain concentration [5]: 475.32 ±80.91 nmol/g w.w.
NAD^+/NADH ratio (adimensional) [5]: 44.40 ± 7.67
UDP brain concentration [5]: 80.00 ± 8.20 nmol/g w.w.
UDP-GalNac brain concentration [5]: 22.37 ± 3.30 nmol/g w.w.
UDP-Glc brain concentration [5]: 43.41 ± 6.43 nmol/g w.w.
UDP-GlcNac brain concentration [5]: 108.74 ± 9.90 nmol/g w.w.
UMP brain concentration [5]: 147.53 ± 20.38 nmol/g w.w.
UTP brain concentration [5]: 108.21 ± 16.99 nmol/g w.w.
concentrations of ascorbic acid and reduced glutathione (GSH) (2 days post impact): significantly ameliorated
NAA concentration (FIG. 7) (2 days post impact, 5 or 15 mg/kg b.w.): significantly higher than values found in sTBI rats
concentrations of UTP and ADP (2 days post-sTBI): No effects
nicotinic coenzyme pool (2 days post-sTBI, 15 mg/kg b.w.): significant protection
Acetyl-CoA (2 days post-sTBI, 5 or 15 mg/kg b.w.): partial rescue
high energy phosphates (ATP, GTP, and CTP) (2 days post-sTBI, all three dosages (1, 5, 15 mg/kg)): Significantly higher values
ATP level, decrease versus value of controls (7 days post impact, untreated sTBI 35% decrease): 16%
NAA concentration, decrease versus value of controls (7 days post impact, untreated sTBI 48% lower): 16%
NAD+ level and NAD/NADH ratio (7 days post injury, single and repeat 15 mg/kg b.w.): normalize
NAA (FIG. 11) (7 days post sTBI, increasing single doses or repeat maximal dose): dose dependent increase
CoA-SH and Acetyl-CoA (7 days post-sTBI, 5 or 15 mg/kg b.w. (single and repeat)): Remarkable positive effects
ATP (FIG. 8) (7 days post-sTBI, any dose tested): significant increases
NAD^+/NADH ratio in brain homogenate (repeated 15 mg/kg b.w.): 37.47 ± 9.46
NAD^+/NADH ratio in brain homogenate (single 1 mg/kg b.w.): 33.91 ± 9.32
NAD^+/NADH ratio in brain homogenate (single 5 mg/kg b.w.): 33.90 ± 7.19
ADENOSINE concentration in brain homogenate [6]: 68.91 ± 16.50 nmol/g w.w.
CDP choline concentration in brain homogenate [6]: 8.23 ± 1.22 nmol/g w.w.
CREATININE concentration in brain homogenate [6]: 17.66 ± 3.29 nmol/g w.w.
CYTIDINE concentration in brain homogenate [6]: 13.79 ± 2.49 nmol/g w.w.
CYTOSINE concentration in brain homogenate [6]: 13.47 ± 1.65 nmol/g w.w.
URACIL concentration in brain homogenate [6]: 17.18 ± 3.36 nmol/g w.w.
CYTOSINE concentration in brain homogenate [7]: 13.65 ± 1.67 nmol/g w.w.
URACIL concentration in brain homogenate [7]: 17.83 ± 3.48 nmol/g w.w.
URIDINE concentration in brain homogenate [7]: 117.21 ± 20.64 nmol/g w.w.
XANTHINE concentration in brain homogenate [7]: 6.71 ± 0.70 nmol/g w.w.
ADENOSINE concentration in brain homogenate [8]: 53.25 ± 12.75 nmol/g w.w.
CDP choline concentration in brain homogenate [8]: 7.07 ± 1.05 nmol/g w.w.
CYTIDINE concentration in brain homogenate [8]: 11.46 ± 2.07 nmol/g w.w.
CYTOSINE concentration in brain homogenate [8]: 13.57 ± 1.66 nmol/g w.w.
